In patent US9226891B2, “Anti-flush compositions” (Vitalis LLC, priority 2011, dated 2016):

Columns and labels:
[1] = GI-absorbed aspirin; cited from earlier work
[2] = test system: flushing side effect of niacin; test: Example 1: flush rating on the Global Flush Severity Scale (GFSS) after niacin, with or without aspirin; type: in vivo, human; conditions: for reduction of flush severity (GFSS) from Period I: vs niacin alone
Description: Healthy human patients were recruited for this study. […] Each patient was asked to rate his or her flush on the Global Flush Severity Scale (GFSS) (see FIG. 1 and Paolini et al. Int. J. Clin. Pract. 62(6):896-904 (2008)), when the flush completely resolved. The Global Flushing Severity Score measures, overall, in the previous 24 hours, how each patient rates the flushing symptoms, including redness, warmth, tingling, and itchiness of the skin. […] After the flush completely resolved, then each patient recorded his or her GFSS flush rating. Not until at least two days later did Period III start. At Period III, each patient was asked to not swallow the orally administered aspirin (81 mg) but to allow the aspirin to be absorbed through the oral mucosa. The aspirin was in powdered form and the remaining aspirin in the mouth was washed out with water. […] Still, the flush was rated (GFSS) after it was resolved. […] The flush was then rated (GFSS) after it completely resolved.

CC(=O)Oc1ccccc1C(=O)O [aspirin]
time to peak aspirin serum level following administration [1]: 15 to 20 min
reduction of flush severity (GFSS) from Period I ([2]; Period II: 81 mg aspirin swallowed + 500 mg niacin): 18%
Global Flush Severity Scale (GFSS) average score ([2]; Period II: 81 mg aspirin swallowed, followed by 500 mg niacin): 6.88
Global Flush Severity Scale (GFSS) average score ([2]; Period III: 81 mg aspirin mucosally absorbed (not swallowed), then 500 mg niacin): 5.06
reduction of flush severity (GFSS) from Period I ([2]; Period III: 81 mg aspirin mucosally absorbed + 500 mg niacin): 40%
Global Flush Severity Scale (GFSS) average score ([2]; Period IV: 81 mg aspirin half mucosally absorbed and half swallowed, then 500 mg niacin): 3.94
reduction of flush severity (GFSS) from Period I ([2]; Period IV: 81 mg aspirin half mucosally absorbed, half swallowed + 500 mg niacin): 53%
